One data set relates to IFNa, PBMCs, p-STAT3. Nature of the data set: IFNa induced p-STAT3 in PBMCs. Particulars: Homo sapiens, PBMC, IFNa stimulated PBMCs. The data set is classed as cell-based.
Another data set deals with JAK1 JH2 (Homo sapiens (Human), UniProt P23458). Nature of the data set: JAK1 JH2 binding (Kd, Table 2). To be noted: JH2 domain.
For another data set, the target named is TYK2 JH1 (Homo sapiens (Human), UniProt P29597). The experiment in a line: TYK2 JH1 binding (Kd, Table 2). Particulars: JH1 domain.
For a further data set, the target named is JAK1 JH1 (Homo sapiens (Human), UniProt P23458). Nature of the data set: JAK1 JH1 binding (Kd, Table 2). Particulars: JH1 domain.
Another data set concerns the target JAK3 JH1 (Homo sapiens (Human), UniProt P52333). Nature of the data set: JAK3 JH1 binding (Kd, Table 2). To be noted: JH1 domain.
Data set [1] addresses human TYK2 (JH2domain-pseudokinase) (Homo sapiens (Human), UniProt P29597). The experiment in a line: TYK2 JH2 domain binding assay (KINOMEscan). A digest of the protocol: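 KINOMEscan competition: DNA-tagged NFkB-fusion kinase domains from HEK293 extracts (<0.1 nM) bound immobilized ligand with compound for 1 hour at room temperature, 0.9% DMSO. Bead-retained kinase was quantified by qPCR. Kd came from 11-point 3-fold series from 30,000 nM top, in duplicate, Hill fit with slope −1.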

In the next data set the target is JAK2 JH1 (Homo sapiens (Human), UniProt O60674). The experiment in a line: JAK2 JH1 binding (Kd, Table 2). Particulars: JH1 domain.
For another data set, the target named is JAK2 JH2 (Homo sapiens (Human), UniProt O60674). The experiment in a line: JAK2 JH2 binding (Kd, Table 2). Particulars: JH2 domain.
In data set [2] the test system is INFα Induced pSTAT5 in Human PBMC. Nature of the data set: INFα induced pSTAT5 in human PBMC. It is filed as cell-based. Particulars: 0.25 h, human PBMCs, INFα 5000 units/ml 15 minutes, p-STAT5, read-out: IFNa, PBMCs, p-STAT5 (IC50). As to the method: Fresh Human PBMCs were resuspended in RPMI 1640 medium with 10% FBS. Cells were seeded in a round bottom 96-well plate at the concentration of 200,000 cells/well. A 10-point dilution series of test compound (top dose 10 uM, 1:5 dilution) was added to the well using the liquid dispenser (Tecan D300e) and incubated for 1 hour at 37 C. Then human INFα recombinant protein (R&D Systems) was added to the well at the final concentration of 5000 units/ml and incubated for 15 minutes at 37 C. Cell lysates were prepared and analyzed by Phospho STAT5 (Tyr693) Kit (Meso Scale Discovery) following manufacturer's protocol.
For calculation of the inhibition rate, the relative pSTAT5 signal of each well=pSTAT5 signal of each well−the average pSTAT5 signal of baseline.
The inhibition %=(the average pSTAT5 signal of INFα treatment wells−the relative of pSTAT5 signal in each compound containing well)/the average pSTAT5 signal of INFα treatment wells*100%
The curve was plotted as the inhibition % (y-axis) vs. compounds concentration (x-axis) and is fitted with log(inhibitor) vs. normalized response—Variable slope by GraphPad Prism7.0.

The conditions of data set [3]: cn_pd bond, 14-membered ring.

Read-outs that look alike come from different tables or passages of the source. Where only a bound is given, the exact number is not on record here.

The IC50 is the concentration at which inhibition is half-maximal. As usually defined, the Kd is the free concentration of one partner at which half of the binding sites on the other are occupied at equilibrium, for simple one-to-one binding. Read a high Kd as a looser complex.

Sequence of JAK3 JH1 (P52333 822-1111): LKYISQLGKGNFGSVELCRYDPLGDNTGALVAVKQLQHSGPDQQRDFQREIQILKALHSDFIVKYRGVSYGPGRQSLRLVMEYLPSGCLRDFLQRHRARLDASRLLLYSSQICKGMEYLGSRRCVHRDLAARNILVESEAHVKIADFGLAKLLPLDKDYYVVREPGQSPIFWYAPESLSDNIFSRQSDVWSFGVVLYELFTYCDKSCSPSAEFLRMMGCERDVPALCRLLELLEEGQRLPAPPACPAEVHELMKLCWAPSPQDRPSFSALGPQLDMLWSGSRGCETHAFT
Sequence of JAK1 JH2 (P23458 583-855): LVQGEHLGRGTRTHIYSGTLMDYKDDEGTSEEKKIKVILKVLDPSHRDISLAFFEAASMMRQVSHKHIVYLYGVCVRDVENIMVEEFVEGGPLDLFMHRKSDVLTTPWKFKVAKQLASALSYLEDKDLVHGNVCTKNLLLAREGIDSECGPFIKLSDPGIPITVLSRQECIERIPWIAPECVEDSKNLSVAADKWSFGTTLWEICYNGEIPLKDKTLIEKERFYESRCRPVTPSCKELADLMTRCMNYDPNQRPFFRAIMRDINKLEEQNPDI
Sequence of JAK1 JH1 (P23458 875-1153): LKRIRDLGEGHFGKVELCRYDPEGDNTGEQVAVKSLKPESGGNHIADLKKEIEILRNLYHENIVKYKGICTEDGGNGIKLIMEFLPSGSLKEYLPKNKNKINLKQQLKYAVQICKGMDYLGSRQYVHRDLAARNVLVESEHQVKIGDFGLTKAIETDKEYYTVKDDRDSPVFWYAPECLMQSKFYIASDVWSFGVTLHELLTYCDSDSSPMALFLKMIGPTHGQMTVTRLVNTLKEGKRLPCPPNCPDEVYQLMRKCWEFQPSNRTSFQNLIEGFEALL
Sequence of JAK2 JH1 (O60674 849-1124): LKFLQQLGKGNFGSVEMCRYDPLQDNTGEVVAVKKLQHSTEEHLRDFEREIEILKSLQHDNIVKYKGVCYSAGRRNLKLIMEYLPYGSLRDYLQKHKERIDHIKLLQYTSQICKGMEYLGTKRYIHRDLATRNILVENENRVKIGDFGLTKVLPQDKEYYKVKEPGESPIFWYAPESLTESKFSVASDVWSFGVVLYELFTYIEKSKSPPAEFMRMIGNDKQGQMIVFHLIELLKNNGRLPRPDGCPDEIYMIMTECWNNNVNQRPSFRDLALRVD
Sequence of JAK2 JH2 (O60674 545-809): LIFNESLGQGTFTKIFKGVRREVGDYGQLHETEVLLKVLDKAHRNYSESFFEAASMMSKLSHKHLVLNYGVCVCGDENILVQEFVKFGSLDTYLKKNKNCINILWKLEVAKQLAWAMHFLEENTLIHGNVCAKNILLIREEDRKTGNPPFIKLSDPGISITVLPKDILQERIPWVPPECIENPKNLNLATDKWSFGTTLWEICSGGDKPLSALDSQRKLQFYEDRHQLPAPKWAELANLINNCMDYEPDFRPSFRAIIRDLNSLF
Sequence of TYK2 JH1 (P29597 897-1176): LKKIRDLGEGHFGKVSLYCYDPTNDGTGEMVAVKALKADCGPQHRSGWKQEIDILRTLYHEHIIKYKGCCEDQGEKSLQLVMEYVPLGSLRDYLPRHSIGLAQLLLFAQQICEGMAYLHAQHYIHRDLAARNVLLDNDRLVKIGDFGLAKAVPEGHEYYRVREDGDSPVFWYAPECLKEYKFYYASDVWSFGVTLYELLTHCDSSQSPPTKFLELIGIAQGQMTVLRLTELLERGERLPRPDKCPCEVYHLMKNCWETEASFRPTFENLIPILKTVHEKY
Sequence of human TYK2 (JH2domain-pseudokinase) (P29597 556-888): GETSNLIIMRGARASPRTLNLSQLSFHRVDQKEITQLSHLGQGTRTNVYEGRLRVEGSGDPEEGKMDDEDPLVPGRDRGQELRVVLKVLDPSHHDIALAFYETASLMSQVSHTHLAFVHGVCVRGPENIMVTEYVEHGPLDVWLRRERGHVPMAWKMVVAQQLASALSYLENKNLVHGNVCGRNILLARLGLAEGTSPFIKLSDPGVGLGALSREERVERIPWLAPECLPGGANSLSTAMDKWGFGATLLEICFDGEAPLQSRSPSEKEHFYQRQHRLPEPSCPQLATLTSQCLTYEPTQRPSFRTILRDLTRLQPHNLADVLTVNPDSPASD

Regarding `CNc1cc2nn3c(cnc13)C(=O)N[C@H](C)COCc1cc(c3c(c1)nnn3C)N2` [Compound 1], the IC50 was less than 50 nM with IFNa, PBMCs, p-STAT3 and less than 50 nM in data set [2]. Further, the equilibrium dissociation constant (Kd) is 10 to 1000 nM on JAK1 JH2; 1000 to 10000 nM on TYK2 JH1; not below 30000 nM on JAK1 JH1; not below 30000 nM at JAK3 JH1; less than 10 nM in data set [1]; not below 30000 nM at JAK2 JH1. This molecule also displayed a dissociation constant (Kd) at JAK2 JH2 of 1000 to 10000 nM.

As for `CNc1cc2nn3c(cnc13)C(=O)N[C@H](CO)COCc1cc(c3nnn(C)c3c1)N2` [Compound 2], the IC50 with IFNa, PBMCs, p-STAT3 was not below 100 nM; in data set [2], less than 50 nM. The values for the Kd (on JAK1 JH2; on TYK2 JH1; in data set [1]) were 10 to 1000 nM, not below 30000 nM and less than 10 nM, respectively.

As to `CNc1cc2nn3c(cnc13)C(=O)N[C@H](C)COCc1cc(c3nnn(C)c3c1)N2` [Compound 5], the IC50 in the data set with IFNa, PBMCs, p-STAT3 was less than 50 nM; in data set [2] it was less than 50 nM. The Kd was 1000 to 10000 nM at JAK1 JH2; not below 30000 nM on TYK2 JH1; not below 30000 nM at JAK1 JH1; not below 30000 nM at JAK3 JH1; less than 10 nM in [1]; not below 30000 nM on JAK2 JH1. Moreover, on JAK2 JH2, the Kd lay within 10000 to 30000 nM.

On to `CNc1cc2nn3c(cnc13)C(=O)N[C@H](C)COCc1cc(c3nn(C)nc3c1)N2` [Compound 6], for which the IC50 with IFNa, PBMCs, p-STAT3 was less than 50 nM; in data set [2] it was less than 50 nM. Further, the Kd was 10 to 1000 nM at JAK1 JH2; 1000 to 10000 nM at TYK2 JH1; not below 30000 nM on JAK1 JH1; not below 30000 nM on JAK3 JH1; less than 10 nM in data set [1]; not below 30000 nM at JAK2 JH1. The molecule further had a Kd on JAK2 JH2 of 1000 to 10000 nM.

As for `CNc1cc2nc3c(cnn13)C(=O)N[C@H](C)COCc1cc(c3c(c1)nnn3C)N2` [Compound 37], the Kd on JAK1 JH2 is 10000 to 30000 nM; on TYK2 JH1, not below 30000 nM; at JAK1 JH1 it was not below 30000 nM; at JAK3 JH1, not below 30000 nM; in [1], less than 10 nM; at JAK2 JH1, not below 30000 nM. On JAK2 JH2, this molecule had a Kd not below 30000 nM.

For `COc1nc2cn3c(c(C)nc13)C(=O)N[C@H](C)COCc1cc(c3nnn(C)c3c1)N2` [Compound 72], the ring closure, yield after HPLC in data set [3] (from COc1nc(Br)cn2c(C(=O)N[C@H](C)COCc3cc(N)c4nnn(C)c4c3)c(C)nc12, RuPhos Pd G3/Cs2CO3, 1,4-dioxane, 72.0 mM, 80.0 °C, 4.0 h) worked out at 21%. This molecule also registered a Kd in [1] of 10 to 1000 nM.

Consider `C[C@@H]1COCc2cc(c3nnn(C)c3c2)Nc2cn3c(cnc3c(N)n2)C(=O)N1` [Compound 73], for which, in [3] (from C[C@H](COCc1cc(N)c2nnn(C)c2c1)NC(=O)c1cnc2c(N)nc(Br)cn12, RuPhos Pd G3 (0.5 eq)/Cs2CO3, dioxane, 64.0 mM, 100.0 °C, 16.0 h), the ring closure, yield after HPLC was 4.4%. Further, the Kd in data set [1] fell in the range of 10 to 1000 nM.

The molecule `Cc1nc2c(N)nc3cn2c1C(=O)N[C@H](C)COCc1cc(c2nnn(C)c2c1)N3` [Compound 74] returned a ring closure, yield after HPLC in data set [3] (from Cc1nc2c(N)nc(Br)cn2c1C(=O)N[C@H](C)COCc1cc(N)c2nnn(C)c2c1, Pd2(dba)3/Xantphos/Cs2CO3, dioxane, 100.0 °C, 16.0 h) of 6.2%. In addition, the Kd in data set [1] was in the range of 10 to 1000 nM.

With `CNc1nc2cn3c(c(C)nc13)C(=O)N[C@H](C)COCc1cc(c3nnn(C)c3c1)N2` [Compound 78], the ring closure, yield after HPLC in [3] (from CNc1nc(Br)cn2c(C(=O)N[C@H](C)COCc3cc(N)c4nnn(C)c4c3)c(C)nc12, RuPhos Pd G3/Cs2CO3, 1,4-dioxane, 64.0 mM, 80.0 °C) stood at 11.3%. The Kd in [1] is 1000 to 10000 nM.

In turn, `COc1nc2cn3c(cnc13)C(=O)N[C@H](C)COCc1cc(c3nnn(C)c3c1)N2` [Compound 79] yielded a ring closure, yield after HPLC in data set [3] (from COc1nc(Br)cn2c(C(=O)N[C@H](C)COCc3cc(N)c4nnn(C)c4c3)cnc12, Pd2(dba)3/Xantphos/Cs2CO3, 1,4-dioxane, 61.0 mM, 80.0 °C) of 14%. The Kd on JAK1 JH2 was not below 30000 nM; at TYK2 JH1 it was not below 30000 nM; in data set [1], 1000 to 10000 nM.

The molecule `Cc1nc2cnc3cn2c1C(=O)N[C@H](C)COCc1cc(c2nnn(C)c2c1)N3` [Compound 81] had a ring closure, yield after HPLC in data set [3] (from Cc1nc2cnc(Br)cn2c1C(=O)N[C@H](C)COCc1cc(N)c2nnn(C)c2c1, RuPhos Pd G3/Cs2CO3, dioxane, 80.0 °C) of 20%. Further, the Kd at JAK1 JH2 was not below 30000 nM; on TYK2 JH1 it was not below 30000 nM; in data set [1] it was 1000 to 10000 nM.

For the molecule “tert-butyl N-methyl-N-[(12R)-12-methyl-10-oxo-14-oxa-2,4,5,7,11,16-hexaazapentacyclo[13.6.2.2^(3,6.0^(5,9.0^(19,23]pentacosa-1(21),3,6,8,15,17,19,22,24-nonaen-24-yl]carbamate”, the ring closure, yield after HPLC in [3] (Pd2(dba)3/Xantphos/Cs2CO3, 1,4-dioxane, 50.0 mM, 80.0 °C) is 60%.

These data come from US20250213571A1, “TYK2 INHIBITORS AND USES THEREOF” (Alumis Inc., priority 2022, published 2025).
